One data set has as its system S. epidermidis 12228. In words: Example 1: growth and colony color on plates surface-spread with chromogen. The class given is cell-based. As to conditions: Summary of Table I; S. epidermidis 12228.
Data set [1] concerns Staphylococcus aureus 25923. The data set is described as above. The class given is cell-based. As to conditions: S. aureus 25923.
Data set [2] relates to Streptococcus pneumoniae 6303. Described as above. Format: cell-based.
The test system of data set [3] is Branhamella catarrhalis 25238. The data set is described as above. Format: cell-based. As to conditions: for Growth: B. catt 25258.
In another data set the test system is Group B Strep. 12386. The description is as above. The class given is cell-based. As to conditions: for Growth: Group B Strep 12386.
A further data set concerns N. gonorrhoeae 35201. The data set is described as above. The class given is cell-based. The note with it: Summary of Table I; N. gonorrhoeae 35201.
Data set [4] relates to Gardnerella vaginalis 14019. The data set is described as above. The class given is cell-based. As to conditions: Summary of Table I; G. vaginalis 14014.
Data set [5] has as its system N. sicca 29193. The data set is described as above. Format: cell-based.
In a further data set the test system is S. aureus 25923. Nature of the data set: Example 2: effect of incubation conditions on colony color formation. Format: cell-based, Staphylococcus aureus.
Data set [6] has as its system N. sicca 29193. The description is as above. Format: cell-based.
For data set [7], the system named is bacterial test strains of Example 1. Nature of the data set: Example 1: inhibitory effect over all test strains. Format: cell-based. As to conditions: Example 1, all test strains.
The nature of data set [8]: Color contrast of chromogen on blood plate.
Data set [9] is described as follows: Precipitate of chromogen on pre-plated media. As to conditions: 50 μl DMSO solution on pre-plated media. Format: physicochemical. Here is the method: 50 μl of each chromogen solution was added to the surface of each of the following pre-plated media (one chromogen solution per plate):
The solution was dispersed using a spreader and allowed to dry 3-4 hours in a hood.

For the compound 5-Br-4-Cl-3-indolyl-caprylate [X-Cap], the “Substrates Producing Growth Inhibition” value is on record as “X-Cap” in the data set on S. epidermidis 12228; “X-Cap” in data set [2] (Summary of Table I, S. pneumoniae 6303); “X-Cap” in [3] (Summary of Table I, B. catarrhalis 25238); “Slight inhib. w/ X-” in the data set on Group B Strep. 12386 (Summary of Table I, Group B Strep. 12386); “X-Cap” in the data set on N. gonorrhoeae 35201; “X-Cap” in [4]. In addition, the Color result in data set [1] (Choc II) is given as “turquoise”; in data set [1] (TSA II 5SB), “turquoise”; in data set [1] (TSA Plain) it was “turquoise”; in the data set on N. sicca 29193 [5] (Substrate on Choclate II Agar, N. sicca. 29193), “blue”. The “Substrates Producing Color” value is on record as “X-Cap” in data set [1] (Summary of Table I) and “X-cap” in the data set with N. sicca 29193 [5] (Summary of Table I, N. sicca 29193). The Growth result in data set [2] (TSA II 5SB, S. pneu: 6303) is listed as “<”; in data set [3] (Choc II), “<”; in data set [3] (TSA II 5SB), “<”; in the data set with Group B Strep. 12386 (Choc II), “<<”; with Group B Strep. 12386 (TSA II 5SB), “<”. For the same compound, the Colony Color result is recorded as “blue (l)” in the data set with S. aureus 25923 and “blue (m)” with N. sicca 29193 [6]. In data set [7], the Inhibitory effect result is “most inhibitory effect”.
For the compound `Oc1c[nH]c2ccc(Br)c(Cl)c12` [5-Bromo-4-chloro-3-indoxyl], in [8], the “Absorption max (nm)” value is reported as 615 nm.
Regarding `Oc1c[nH]c2cc(Cl)ccc12` [6-chloro-3-indoxyl], the “Absorption max (nm)” value in [8] was 540 nm.
`O=C([O-])[C@H]1O[C@@H](Oc2c[nH]c3ccc(Br)c(Cl)c23)[C@H](O)[C@@H](O)[C@@H]1O.[Na+]` [X-Glucuro(s), 5-Br-4-Cl-3-indolyl-β-D-glucuronide (sodium salt)]: in data set [9], the “Precipitate when spread / placed on the plated media” value is recorded as “remained clear”.

The record behind these values is patent US20020086278A1, “CHROMOGENIC MEDIA CONTAINING BLOOD OR HEMIN” (priority 1999, published 2002).
